“And” between values parts separate entries of the source, which are not always exact repeats. Equal entries are not always repeated.
Columns and labels:
THIK1 (K2P13.1) = biological target: T1, THIK1 (K2P13.1) (Homo sapiens, UniProt Q9HB14); experiment: Whole-cell patch clamp, THIK1 channels; type: cell-based; settings: 1 μM; n = 7
T1 construct: expressed in transfected cells; host or cells: tsA-201, transient, pcDNA3.1 vector
Method: (§1) Recordings of hTREK1, hTREK1∆N, hTREK2, hTRAAK and […] currents from transiently transfected tsA‐201 cells were performed using methods as described in Veale and Mathie (2016). Briefly, the pcDNA3.1 vector was cloned with the gene of interest, and these vectors and a similar vector containing GFP were incorporated into the tsA201 cells (0.5 μg per well) using the calcium phosphate method. The cells were incubated for 6–12 h at 37°C in […] and 5% carbon dioxide. Cells were then washed using a PBS solution and used for experiments after 24 h.
(§2) Currents were recorded using whole‐cell patch‐clamp using an Axopatch 1D amplifier. Cells were placed in a recording chamber filled with an external medium composed of 145 mM, NaCl, 2.5 mM KCl, 3 mM MgCl2, 1 mM CaCl2 and 10 mM HEPES (pH to 7.4, using NaOH). The internal medium used in the glass pipette comprised 150 mM KCl, 3 mM MgCl2, 5 mM (or 0.1 mM) EGTA and 10 mM HEPES (pH to 7.4, using KOH). GI‐530159 was applied by bath perfusion. Currents were recorded and analysed using pCLAMP 10.2 software Microsoft Excel. The voltage protocol used for recording current through K2P channels was as previously described (Veale and Mathie, 2016). For analysis, we measured the current difference between the −80 and −40 mV steps.

NaV1.8 = NaV1.8 (Homo sapiens, UniProt Q9Y5Y9); experiment: Sodium channel selectivity, NaV1.8; type: cell-based; settings: read-out: EC50 against NaV1.8
Sequence of NaV1.8 (Q9Y5Y9 whole entry): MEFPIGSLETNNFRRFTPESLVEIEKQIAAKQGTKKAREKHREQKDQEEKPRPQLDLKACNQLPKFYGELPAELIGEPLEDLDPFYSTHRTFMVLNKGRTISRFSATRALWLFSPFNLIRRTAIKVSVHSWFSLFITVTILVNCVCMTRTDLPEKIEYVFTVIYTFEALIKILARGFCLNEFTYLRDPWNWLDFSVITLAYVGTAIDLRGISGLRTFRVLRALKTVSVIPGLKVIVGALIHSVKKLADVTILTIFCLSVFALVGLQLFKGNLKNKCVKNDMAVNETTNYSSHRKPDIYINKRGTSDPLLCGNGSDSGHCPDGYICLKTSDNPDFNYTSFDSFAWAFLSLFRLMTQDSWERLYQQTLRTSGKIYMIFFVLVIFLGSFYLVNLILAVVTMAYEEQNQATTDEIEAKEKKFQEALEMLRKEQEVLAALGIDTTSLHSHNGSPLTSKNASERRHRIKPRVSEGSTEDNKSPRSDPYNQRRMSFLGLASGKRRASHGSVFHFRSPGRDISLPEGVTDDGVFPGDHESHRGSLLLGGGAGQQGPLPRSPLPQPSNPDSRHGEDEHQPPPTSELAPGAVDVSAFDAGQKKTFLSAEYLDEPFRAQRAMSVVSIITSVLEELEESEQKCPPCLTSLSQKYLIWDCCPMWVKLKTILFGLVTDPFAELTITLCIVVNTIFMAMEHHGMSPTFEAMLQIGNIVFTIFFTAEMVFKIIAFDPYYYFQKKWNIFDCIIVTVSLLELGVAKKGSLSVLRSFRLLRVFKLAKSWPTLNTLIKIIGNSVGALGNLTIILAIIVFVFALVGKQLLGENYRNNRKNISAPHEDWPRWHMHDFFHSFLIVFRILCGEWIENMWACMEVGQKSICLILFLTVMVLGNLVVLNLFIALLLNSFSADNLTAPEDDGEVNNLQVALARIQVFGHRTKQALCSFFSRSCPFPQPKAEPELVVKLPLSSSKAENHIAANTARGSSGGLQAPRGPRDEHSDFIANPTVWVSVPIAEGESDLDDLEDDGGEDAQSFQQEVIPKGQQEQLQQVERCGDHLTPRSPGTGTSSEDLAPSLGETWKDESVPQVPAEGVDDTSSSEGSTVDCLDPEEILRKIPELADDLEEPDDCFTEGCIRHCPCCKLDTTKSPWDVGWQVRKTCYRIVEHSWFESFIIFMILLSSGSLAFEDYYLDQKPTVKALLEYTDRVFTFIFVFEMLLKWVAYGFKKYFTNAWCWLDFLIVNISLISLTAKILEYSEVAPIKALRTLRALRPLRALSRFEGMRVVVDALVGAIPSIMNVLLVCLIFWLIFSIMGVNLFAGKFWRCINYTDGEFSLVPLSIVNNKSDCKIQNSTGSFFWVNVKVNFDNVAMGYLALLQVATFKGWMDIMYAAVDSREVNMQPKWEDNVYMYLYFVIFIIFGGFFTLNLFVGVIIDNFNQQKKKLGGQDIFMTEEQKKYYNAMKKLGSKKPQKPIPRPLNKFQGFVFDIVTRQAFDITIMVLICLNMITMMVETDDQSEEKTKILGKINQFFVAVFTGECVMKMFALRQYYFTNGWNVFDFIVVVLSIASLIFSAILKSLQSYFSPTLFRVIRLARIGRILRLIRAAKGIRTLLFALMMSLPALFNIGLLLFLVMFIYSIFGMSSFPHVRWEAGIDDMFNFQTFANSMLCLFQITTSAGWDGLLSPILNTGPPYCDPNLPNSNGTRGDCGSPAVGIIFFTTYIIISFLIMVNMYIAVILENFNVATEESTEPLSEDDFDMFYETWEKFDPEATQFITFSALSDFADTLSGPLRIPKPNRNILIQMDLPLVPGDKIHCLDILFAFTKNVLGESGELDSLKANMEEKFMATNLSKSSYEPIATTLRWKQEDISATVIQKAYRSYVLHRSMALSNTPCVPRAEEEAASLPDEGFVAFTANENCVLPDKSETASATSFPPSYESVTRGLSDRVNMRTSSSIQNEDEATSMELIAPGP

hTREK1 [1] = biological target: T2, hTREK1 (Homo sapiens, UniProt O95069); experiment: Whole-cell patch clamp, transiently transfected tsA-201 cells, TREK1; type: cell-based; parameters: expressed in transfected cells; host or cells: tsA-201, transient, pcDNA3.1 vector, GFP from a separate vector; settings: 1 μM, n = 6
T2 sequence (O95069 1-426): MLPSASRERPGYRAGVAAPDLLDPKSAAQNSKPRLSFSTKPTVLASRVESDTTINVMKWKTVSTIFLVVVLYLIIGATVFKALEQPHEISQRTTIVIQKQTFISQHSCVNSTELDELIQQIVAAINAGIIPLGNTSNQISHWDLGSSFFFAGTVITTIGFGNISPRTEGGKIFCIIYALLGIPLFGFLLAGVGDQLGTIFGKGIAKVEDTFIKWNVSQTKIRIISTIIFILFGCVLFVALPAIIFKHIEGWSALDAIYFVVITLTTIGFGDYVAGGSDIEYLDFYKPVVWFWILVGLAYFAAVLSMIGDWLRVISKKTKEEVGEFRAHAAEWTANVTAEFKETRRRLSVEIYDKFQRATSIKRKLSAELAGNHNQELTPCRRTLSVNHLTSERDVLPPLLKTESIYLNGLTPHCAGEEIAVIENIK
Method: as §1, §2

NaV1.7 = NaV1.7 (Homo sapiens, UniProt Q15858); experiment: Sodium channel selectivity, NaV1.7; type: cell-based; settings: read-out: EC50 against NaV1.7
Sequence of NaV1.7 (Q15858 whole entry): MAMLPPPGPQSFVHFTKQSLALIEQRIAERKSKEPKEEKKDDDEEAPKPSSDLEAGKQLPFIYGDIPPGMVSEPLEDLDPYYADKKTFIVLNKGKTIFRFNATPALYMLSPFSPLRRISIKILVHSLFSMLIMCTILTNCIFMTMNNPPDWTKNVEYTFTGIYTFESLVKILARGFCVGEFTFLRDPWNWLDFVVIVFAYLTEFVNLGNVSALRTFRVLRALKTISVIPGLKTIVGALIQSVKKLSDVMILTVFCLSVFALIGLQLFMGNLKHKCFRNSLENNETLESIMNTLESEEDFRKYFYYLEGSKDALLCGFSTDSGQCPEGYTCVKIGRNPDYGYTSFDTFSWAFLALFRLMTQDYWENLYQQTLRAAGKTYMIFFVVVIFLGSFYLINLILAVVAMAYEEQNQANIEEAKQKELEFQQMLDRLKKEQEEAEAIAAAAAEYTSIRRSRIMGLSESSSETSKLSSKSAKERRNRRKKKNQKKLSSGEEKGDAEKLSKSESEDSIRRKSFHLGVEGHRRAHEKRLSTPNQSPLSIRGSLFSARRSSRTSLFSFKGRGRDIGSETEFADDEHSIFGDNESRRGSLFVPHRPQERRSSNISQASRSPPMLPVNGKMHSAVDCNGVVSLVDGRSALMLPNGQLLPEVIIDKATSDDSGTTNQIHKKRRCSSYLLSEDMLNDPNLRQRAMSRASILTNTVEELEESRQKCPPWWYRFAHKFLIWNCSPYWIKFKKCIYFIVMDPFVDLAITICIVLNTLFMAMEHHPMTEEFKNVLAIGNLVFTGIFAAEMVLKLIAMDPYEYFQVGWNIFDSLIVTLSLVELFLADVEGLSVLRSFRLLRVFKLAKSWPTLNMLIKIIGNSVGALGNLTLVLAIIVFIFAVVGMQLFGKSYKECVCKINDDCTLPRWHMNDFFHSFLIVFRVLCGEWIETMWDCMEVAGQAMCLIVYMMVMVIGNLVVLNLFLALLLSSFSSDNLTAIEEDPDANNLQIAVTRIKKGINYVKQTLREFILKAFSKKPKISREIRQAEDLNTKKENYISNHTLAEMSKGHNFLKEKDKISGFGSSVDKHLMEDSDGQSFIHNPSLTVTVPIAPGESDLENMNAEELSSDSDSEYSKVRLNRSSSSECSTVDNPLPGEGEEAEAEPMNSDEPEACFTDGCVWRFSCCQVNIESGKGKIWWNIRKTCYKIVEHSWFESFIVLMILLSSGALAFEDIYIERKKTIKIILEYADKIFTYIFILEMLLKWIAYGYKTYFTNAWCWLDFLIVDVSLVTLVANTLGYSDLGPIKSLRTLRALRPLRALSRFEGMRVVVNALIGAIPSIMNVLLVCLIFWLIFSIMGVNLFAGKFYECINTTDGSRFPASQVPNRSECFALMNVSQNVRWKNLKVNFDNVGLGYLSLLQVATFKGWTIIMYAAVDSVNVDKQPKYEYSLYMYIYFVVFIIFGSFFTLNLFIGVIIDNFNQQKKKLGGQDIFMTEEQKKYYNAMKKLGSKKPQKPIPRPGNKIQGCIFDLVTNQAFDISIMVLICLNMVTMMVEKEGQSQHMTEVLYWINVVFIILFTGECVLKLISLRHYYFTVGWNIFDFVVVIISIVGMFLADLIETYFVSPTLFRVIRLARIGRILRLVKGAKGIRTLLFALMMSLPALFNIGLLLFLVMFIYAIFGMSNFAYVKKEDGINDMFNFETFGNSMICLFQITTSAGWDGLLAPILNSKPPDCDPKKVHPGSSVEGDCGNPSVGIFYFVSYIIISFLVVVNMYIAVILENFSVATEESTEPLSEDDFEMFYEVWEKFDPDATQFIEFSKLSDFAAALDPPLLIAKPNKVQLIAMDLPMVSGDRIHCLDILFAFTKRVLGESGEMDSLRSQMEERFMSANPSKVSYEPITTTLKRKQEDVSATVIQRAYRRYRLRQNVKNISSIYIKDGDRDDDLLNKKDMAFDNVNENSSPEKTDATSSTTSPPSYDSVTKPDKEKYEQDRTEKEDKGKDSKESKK

hTREK1 [2] = biological target: T2, hTREK1; experiment: Manual whole-cell patch clamp, HEK293 cells stably expressing TREK1; type: cell-based; parameters: expressed in transfected cells
Method: Electrophysiological studies were performed on CHO or HEK293 cells, stably expressing human recombinant TREK1; tsA‐201 cells transiently transfected with human recombinant K2P channels and acutely dissociated rat DRG cells, all at room temperature (22–24°C).
Studies were performed using a conventional patch clamp and Multiclamp 700B and pCLAMP software (Molecular Devices, Sunnyvale, CA, USA). For conventional manual patch clamp, glass coverslips containing HEK293 cells were perfused with an extracellular solution (ECS) containing (in mM): 135 NaCl, 4.7 KCl, 1 CaCl2, 1 MgCl2, 10 HEPES and 10 glucose, pH 7.4, with NaOH (310 mOsmol·L^−1). The patch pipette was filled with (in mM): 130 KCl, 1 MgCl2, 5 MgATP, 10 HEPES and 10 BAPTA, pH adjusted to 7.3 with KOH (290 mOsmol·L^−1).

Kv7.2 = Kv7.2 (Homo sapiens, UniProt O43526); experiment: Rb+ efflux assay, Kv7.2; type: cell-based
TASK2 (K2P5.1) = TASK2 (K2P5.1) (Homo sapiens, UniProt O95279); experiment: Rb+ efflux assay, TASK2; type: cell-based
Sequence of TASK2 (K2P5.1) (O95279 whole entry, species assumed): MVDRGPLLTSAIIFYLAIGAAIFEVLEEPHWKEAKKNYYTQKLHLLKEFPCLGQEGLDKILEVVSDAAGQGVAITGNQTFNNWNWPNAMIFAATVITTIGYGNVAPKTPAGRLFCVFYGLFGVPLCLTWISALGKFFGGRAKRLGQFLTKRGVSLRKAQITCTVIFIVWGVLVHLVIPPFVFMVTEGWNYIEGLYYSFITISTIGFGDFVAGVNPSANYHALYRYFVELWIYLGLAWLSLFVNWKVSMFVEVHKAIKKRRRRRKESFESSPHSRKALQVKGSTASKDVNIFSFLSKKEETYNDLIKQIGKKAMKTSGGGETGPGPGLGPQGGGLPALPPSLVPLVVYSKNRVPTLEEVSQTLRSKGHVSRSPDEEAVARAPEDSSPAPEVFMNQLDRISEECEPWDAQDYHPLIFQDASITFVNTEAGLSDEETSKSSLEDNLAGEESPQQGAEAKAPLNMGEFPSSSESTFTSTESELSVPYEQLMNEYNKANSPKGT

TASK3 (K2P9.1) = TASK3 (K2P9.1) (Homo sapiens, UniProt Q9NPC2); experiment: Activated current, TASK3 channels; type: cell-based; settings: 1 μM; n = 5
[3] = tested on: Na current in DRG neurons; experiment: Voltage-clamp recordings from DRG neurons, Na current; type: cell-based, rat
Method: Acutely dissociated rat DRG cells were obtained according to a previously described protocol (Passmore, 2005). All animal care and experimental procedures complied with guidelines and were approved by the Pfizer Neusentis Institutional Animal Use and Care Committee. Animal studies are reported in compliance with the ARRIVE guidelines (Kilkenny et al., 2010; McGrath and Lilley, 2015).Cells were plated on coated coverslips (poly‐D‐lysine/laminin, BD Biosciences, San Jose, CA, USA) prior to patching on the same day. Cells were perfused with an extracellular solution containing (in mM): 135 NaCl, 4.7 KCl, 1 CaCl2, 1 MgCl2, 10 HEPES and 10 glucose, pH 7.4, with NaOH (310 mOsmol·L^−1). Pipette solution contained (in mM): 130 KCl, 1 MgCl2, 5 MgATP, 10 HEPES and 5 EGTA, pH adjusted to 7.3 with KOH (290 mOsmol·L^−1). For whole‐cell recordings, currents were filtered at 2 kHz and sampled at 5 kHz. Series resistance was compensated for by up to 80%. For current‐clamp recordings, action potential firing and resting membrane potential (RMP) were recorded from small cells ([…]). GI‐530159 was dissolved in 0.3% DMSO as 10 mM stock and applied in the vicinity of cells using a gravity fed perfusion system (MSC‐200, Bio‐Logic SAS, Claix, France).

T1 sequence (Q9HB14 whole entry): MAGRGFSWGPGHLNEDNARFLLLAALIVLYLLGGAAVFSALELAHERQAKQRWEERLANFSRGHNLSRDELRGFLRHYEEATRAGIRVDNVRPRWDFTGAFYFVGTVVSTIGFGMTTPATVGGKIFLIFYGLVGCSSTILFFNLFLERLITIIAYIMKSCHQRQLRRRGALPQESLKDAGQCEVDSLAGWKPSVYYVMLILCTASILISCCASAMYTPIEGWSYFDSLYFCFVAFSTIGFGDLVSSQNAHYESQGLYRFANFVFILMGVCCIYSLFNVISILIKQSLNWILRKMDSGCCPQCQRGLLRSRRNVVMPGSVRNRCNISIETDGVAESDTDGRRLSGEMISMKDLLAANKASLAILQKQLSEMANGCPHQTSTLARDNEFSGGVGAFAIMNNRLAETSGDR

Q: Which “effect on THIK1 (K2P13.1) current” value (THIK1 (K2P13.1)) does the source give for Nc1ccc(Oc2ccc(C(c3ccc(Oc4ccc(N)cc4)cc3)(C(F)(F)F)C(F)(F)F)cc2)cc1 [GI‐530159, 4,4′‐(hexafluoroisopropylidene)bis(p‐phenyleneoxy)dianiline] here?
A: 0 ± 3%

Q: And the EC50 (NaV1.8)?
A: > 100000 nM

Q: And the “enhancement of TREK1 current” value (hTREK1 [1])?
A: 69 ± 12%

Q: And the EC50 (NaV1.7)?
A: > 100000 nM

Q: And the “TREK1 current measured at 0 mV” value (hTREK1 [2]; 1 μM, HEK293, 116 ± 15 pA in presence of DMSO, n = 6, P < 0.05)?
A: 4090 ± 878 pA

Q: And the “activated current, TREK1 channels” value (hTREK1 [2]; 1 μM, n = 6)?
A: 4.0 ± 0.9 nA

Q: And the “reversal potential of compound-enhanced current” value (hTREK1 [2]; 1 μM, voltage ramp −100 to +80 mV)?
A: ~−80 mV

Q: What about the “enhanced current at maximal activation” value (hTREK1 [2]; 30 μM, measured at 0 mV, n = 5) of the same compound?
A: 6.6 ± 0.9 nA

Q: What about the EC50 (hTREK1 [2]; HEK293, 0.1 to 30 μM, measured at 0 mV, read-out: EC50 for TREK1 current enhancement) of the same compound?
A: 890 nM and 900 nM

Q: And the “activator effect on Kv7.2” value (Kv7.2)?
A: no activator effects

Q: What about the “activator effect on TASK2 (K2P5.1)” value (TASK2 (K2P5.1)) of the same compound?
A: no activator effects

Q: What about the “activated current, TASK3 channels” value (TASK3 (K2P9.1)) of the same compound?
A: 0.02 ± 0.005 nA

Q: And the “block of Na current in DRG neurons” value [3]?
A: not observed
